# Measurements published in patent US7893077B2, “Bisaryl-sulfonamides” (Amgen Inc., priority 2004, dated 2011).
# Target: T1, PPARγ (Homo sapiens, UniProt P37231)
# T1 construct: made in house
# T1 sequence (P37231 1-505): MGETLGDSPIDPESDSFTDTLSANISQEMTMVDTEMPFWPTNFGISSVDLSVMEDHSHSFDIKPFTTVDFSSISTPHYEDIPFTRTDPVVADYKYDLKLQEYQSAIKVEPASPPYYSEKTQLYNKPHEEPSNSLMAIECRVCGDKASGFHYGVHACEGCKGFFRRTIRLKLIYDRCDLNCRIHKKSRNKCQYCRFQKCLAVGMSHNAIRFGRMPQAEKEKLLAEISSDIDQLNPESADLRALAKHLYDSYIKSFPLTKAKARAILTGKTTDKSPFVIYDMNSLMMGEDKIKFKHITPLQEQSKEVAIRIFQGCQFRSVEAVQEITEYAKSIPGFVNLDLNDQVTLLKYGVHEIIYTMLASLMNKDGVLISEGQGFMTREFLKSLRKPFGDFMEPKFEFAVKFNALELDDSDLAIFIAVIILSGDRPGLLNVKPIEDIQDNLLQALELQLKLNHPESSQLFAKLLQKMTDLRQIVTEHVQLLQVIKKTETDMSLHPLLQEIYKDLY
# Experiment: PPARγ ligand binding assay utilizing [3H]-BRL 49653 as the radioligand (filtration)
# Settings: concentration required to reduce by 50% the specific binding of [3H]-BRL 49653
# Source text: The compounds of the present invention can be evaluated for modulation of the PPARγ receptor using assays such as those described in Jiang, et al., Nature 391:82-86 (1998), Ricote, et al., Nature 391:79-82 (1998) and Lehmann, et al., J. Biol. Chem. 270(12): 12953-12956 (1995). Alternatively, the compounds can be evaluated for their ability to displace radiolabeled BRL 49653 from a PPARγ-GST fusion protein as follows:
# PPARγ-GST fusion protein (prepared according to standard procedures), [^3H]-BRL 49653 having 50 Ci/mmol specific activity, Polyfiltronics Unifilter 350 filtration plate and glutathione-Sepharose® beads (from Pharmacia: washed twice with 10× binding buffer in which BSA and DTI can be left out).
# Binding buffer (10 mM Tris-HCl, pH 8.0, 50 mM KCl, 10 mM DTT, 0.02% BSA and 0.0 1% NP-40) is added in 80-μL amounts to the wells of the filtration plate. The test compound is then added in 10 μL of DMSO. The PPARγ-GST fusion protein and radiolabeled BRL compound are premixed in binding buffer containing 10 mM DTT and added in 10-μL amounts to the wells of the plate to provide final concentrations of 1 µg/well of PPARγ-GST fusion protein and 10 nM [^3H]-BRL 49653 compound. The plate is incubated for 15 min. Glutathione-agarose bead is added in 50 μL of binding buffer, and the plate is vigorously shaken for one hour. The plate is washed four times with 200 μL/well of binding buffer (without BSA and DTT). The bottom of the plate is sealed and 200 μL/well of scintillation cocktail is added. The top of the plate is then sealed and the radioactivity is determined.
# IC50 values are defined as the concentration of test compounds required to reduce by 50% the specific binding of [^3H]-BRL 49653 and are represented by (+)<30 μM; (++)<10 μM; (+++)<1 μM.
row,Structure (SMILES),IC50 [µM]
1,"Cc1nc(NS(=O)(=O)c2ccc(C(F)(F)F)cc2Cl)ncc1Sc1ccc(S(=O)(=O)N2CCCCC2)cc1 [Compound 50, 2-Chloro-N-{4-methyl-5-[4-(piperidine-1-sulfonyl) -phenylsulfanyl]-pyrimidin-2-yl}-4-trifluoromethyl-benzenesulfonamide]",< 10
2,"CCCNc1nc(NS(=O)(=O)c2ccc(Cl)cc2Cl)ncc1Sc1ccc(S(=O)(=O)N2CCCCC2)cc1 [Compound 12, 2,4-Dichloro-N-{5-[4-(piperidine-1-sulfonyl)-phenylsulfanyl]-4-propylamino-pyrimidin-2-yl}-benzenesulfonamide]",< 1
3,"CC(C)c1cc(NS(=O)(=O)c2ccc(C(F)(F)F)cc2Cl)nnc1Sc1ccc(S(=O)(=O)N2CCOCC2)cc1 [Compound 135, 3-(2′-chloro-4′-trifluoromethyl)phenylsulfonylamino-5-iso-propyl-6-(4″-N-morpholinesulfonyl)phenylthiopyridazine]",< 10
4,"COCCNc1nc(NS(=O)(=O)c2ccc(Cl)cc2Cl)ncc1Sc1ccc(S(=O)(=O)N2CCCCC2)cc1 [Compound 16, 2,4-Dichloro-N-{4-(2-methoxy-ethylamino)-5-[4-(piperidine-1-sulfonyl)-phenylsulfanyl]-pyrimidin-2-yl}-benzenesulfonamide]",< 1
5,"O=C(c1nc(NS(=O)(=O)c2ccc(C(F)(F)F)cc2Cl)ccc1Sc1ccc(S(=O)(=O)C2CCOCC2)cc1)C1CC1 [Compound 102, 2-Chloro-N-{6-cyclopropanecarbonyl-5-[4-(tetrahydro-pyran-4-sulfonyl)-phenylsulfanyl]-pyridin-2-yl}-4-trifluoromethyl-benzenesulfonamide]",< 1
6,"O=C(c1cc(NS(=O)(=O)c2ccc(Cl)cc2Cl)ncc1Sc1ccc(S(=O)(=O)N2CCCCC2)cc1)C1CC1 [Compound 128, 2,4-dichloro-N-{4-cyclopropanecarbonyl-5-[4-(piperidine-1-sulfonyl)-phenylsulfanyl]-pyridin-2-yl}-benzenesulfonamide]",< 1
7,"O=S(=O)(Nc1ccc(Sc2ccc(S(=O)(=O)N3CCCCC3)cc2)cn1)c1ccc(C(F)(F)F)cc1Cl [Compound 69, 2-Chloro-N-{5-[4-(piperidine-1-sulfonyl)-phenylsulfanyl]-pyridin-2-yl}-4-trifluoromethyl-benzenesulfonamide]",< 1
8,"O=C(c1nc(NS(=O)(=O)c2ccc(Cl)cc2Cl)ccc1Sc1ccc(S(=O)(=O)N2CCOCC2)cc1)C1CC1 [Compound 79, 2,4-Dichloro-N-{6-cyclopropanecarbonyl-5-[4-(morpholine-4-sulfonyl)-phenylsulfanyl]-pyridin-2-yl}-benzenesulfonamide]",< 1
9,"Cc1nc(NS(=O)(=O)c2ccc(Cl)cc2Cl)ncc1Sc1ccc2ccccc2c1 [Compound 57, 2,4-Dichloro-N-[4-methyl-5-(naphthalen-2-ylsulfanyl)-pyrimidin-2-yl]-benzenesulfonamide]",< 10
10,"CCCOc1nc(NS(=O)(=O)c2ccc(Cl)cc2)ncc1Oc1ccc(S(=O)(=O)N2CCOCC2)cc1 [Compound 29, 4-Chloro-N-{5-[4-(morpholine-4-sulfonyl)-phenoxy]-4-propoxy-pyrimidin-2-yl}-benzenesulfonamide]",< 10
11,"Cc1cc(S(=O)(=O)Nc2ccc(Sc3ccc(S(=O)(=O)N4CCCCC4)cc3)cn2)c(Cl)cc1Cl [Compound 67, 2,4-Dichloro-5-methyl-N-{5-[4-(piperidine-1-sulfonyl) -phenylsulfanyl]-pyridin-2-yl}-benzenesulfonamide]",< 1
12,"Cc1nc(NS(=O)(=O)c2ccc(Cl)cc2Cl)ncc1Sc1ccc(S(=O)(=O)N2CCOCC2)cc1 [Compound 52, 2,4-Dichloro-N-{4-methyl-5-[4-(morpholine-4-sulfonyl) -phenylsulfanyl]-pyrimidin-2-yl}-benzenesulfonamide]",< 10
13,"CCCSc1nc(NS(=O)(=O)c2ccc(Cl)cc2Cl)ncc1Sc1ccc(S(=O)(=O)N2CCCCC2)cc1 [Compound 32, 2,4-Dichloro-N-{5-[4-(piperidine-1-sulfonyl)-phenylsulfanyl]-4-propylsulfanyl-pyrimidin-2-yl}-benzenesulfonamide]",< 1
14,"CC(C)NC(=O)c1nc(NS(=O)(=O)c2ccc(Cl)cc2Cl)ccc1Sc1ccc(S(=O)(=O)N2CCCCC2)cc1 [Compound 85, 6-(2,4-Dichloro-benzenesulfonylamino)-3-[4-(piperidine-1-sulfonyl)-phenylsulfanyl]-pyridine-2-carboxylic acid isopropylamide]",< 1
15,"CCCCCc1nc(NS(=O)(=O)c2ccc(Cl)cc2Cl)ncc1Sc1ccc(S(=O)(=O)N2CCCCC2)cc1 [Compound 47, 2,4-Dichloro-N-{4-pentyl-5-[4-(piperidine-1-sulfonyl) -phenylsulfanyl]-pyrimidin-2-yl}-benzenesulfonamide]",< 1
16,"CCCCCOC(=O)c1cc(NS(=O)(=O)c2ccc(Cl)cc2Cl)ncc1Sc1ccc(S(=O)(=O)N2CCCCC2)cc1 [Compound 126, 2-(2,4-Dichloro-benzenesulfonylamino)-5-[4-(piperidine-1-sulfonyl)-phenylsulfanyl]-isonicotinic acid pentyl ester]",< 1
17,"Cc1nc(NS(=O)(=O)c2ccc(C(F)(F)F)cc2Cl)ccc1Sc1ccc(S(=O)(=O)N2CCOCC2)cc1 [Compound 103, 2-Chloro-N-{6-methyl-5-[4-(morpholine-4-sulfonyl) -phenylsulfanyl]-pyridin-2-yl}-4-trifluoromethyl-benzenesulfonamide]",< 1
18,"CCCCCc1nc(NS(=O)(=O)c2ccc(Cl)cc2)ncc1Sc1ccc(S(=O)(=O)N2CCCCC2)cc1 [Compound 48, 4-Chloro-N-{4-pentyl-5-[4-(piperidine-1-sulfonyl) -phenylsulfanyl]-pyrimidin-2-yl}-benzenesulfonamide]",< 1
19,"CCCC(=O)c1nc(NS(=O)(=O)c2ccc(Cl)cc2Cl)ccc1Sc1ccc(S(=O)(=O)NCC)cc1 [Compound 118, N-[6-Butyryl-5-(4-ethylsulfamoyl-phenylsulfanyl)-pyridin-2-yl]-2,4-dichloro-benzenesulfonamide]",< 1
20,"CCCOc1nc(NS(=O)(=O)c2ccc(C(F)(F)F)cc2Cl)ccc1Sc1ccc(S(=O)(=O)N2CCCCC2)cc1 [Compound 110, 2-Chloro-N-{5-[4-(piperidine-1-sulfonyl)-phenylsulfanyl]-6-propoxy-pyridin-2-yl}-4-trifluoromethyl-benzenesulfonamide]",< 10
21,"CCCC(=O)c1nc(NS(=O)(=O)c2ccc(C(F)(F)F)cc2Cl)ccc1Sc1ccc(S(=O)(=O)C(CC)CC)cc1 [Compound 116, N-{6-Butyryl-5-[4-(pentane-3-sulfonyl)-phenylsulfanyl]-pyridin-2-yl}-2-chloro-4-trifluoromethyl-benzenesulfonamide]",< 1
22,"CCCCc1nc(NS(=O)(=O)c2ccc(Cl)cc2Cl)ccc1Sc1ccc(S(=O)(=O)N2CCOCC2)cc1 [Compound 124, N-{6-Butyl-5-[4-(morpholine-4-sulfonyl)-phenylsulfanyl]-pyridin-2-yl}-2,4-dichloro-benzenesulfonamide]",< 1
23,"CCCOc1nc(NS(=O)(=O)c2ccc(Cl)cc2Cl)ncc1Oc1ccc(Cl)c(Cl)c1 [Compound 31, 2,4-Dichloro-N-[5-(3,4-dichloro-phenoxy)-4-propoxy-pyrimidin-2-yl]-benzenesulfonamide]",< 10
24,"Cc1nc(NS(=O)(=O)c2ccc(Cl)cc2Cl)ccc1Sc1ccc(S(=O)(=O)N2CCOCC2)cc1 [Compound 77, 2,4-Dichloro-N-{6-methyl-5-[4-(morpholine-4-sulfonyl) -phenylsulfanyl]-pyridin-2-yl}-benzenesulfonamide]",< 1
25,"CCC(=O)c1nc(NS(=O)(=O)c2ccc(Cl)cc2Cl)ccc1Sc1ccc(S(=O)(=O)N2CCOCC2)cc1 [Compound 86, 2,4-Dichloro-N-{5-[4-(morpholine-4-sulfonyl)-phenylsulfanyl]-6-propionyl-pyridin-2-yl}-benzenesulfonamide]",< 1
26,"Cc1nc(NS(=O)(=O)c2ccc(Cl)cc2Cl)ccc1Sc1ccc(S(=O)(=O)N2CCCCC2)cc1 [Compound 65, 2,4-Dichloro-N-{6-methyl-5-[4-(piperidine-1-sulfonyl) -phenylsulfanyl]-pyridin-2-yl}-benzenesulfonamide]",< 1
